Experimental data published in publication PMC6350621, “Small-molecules that covalently react with a human prolyl hydroxylase – towards activity modulation and substrate capture” (Chemical Communications (Cambridge, England), 2018).

Key:
PHD2 K408I = biological target: T1, PHD2 K408I (Homo sapiens, UniProt Q9GZT9, K408I); assay: Non-denaturing ESI-MS crosslinking, K408I variant; assay type: binding; details: equimolar FeSO4 and compound, 3 h, 37 °C
T1 construct: PHD2_181–426 (hereafter PHD2); His6 (N, cleaved yes); made in house; host or cells: bacterial culture (2x TY, kanamycin, IPTG); QuikChange mutagenesis
T1 sequence (Q9GZT9 181-426 K408I): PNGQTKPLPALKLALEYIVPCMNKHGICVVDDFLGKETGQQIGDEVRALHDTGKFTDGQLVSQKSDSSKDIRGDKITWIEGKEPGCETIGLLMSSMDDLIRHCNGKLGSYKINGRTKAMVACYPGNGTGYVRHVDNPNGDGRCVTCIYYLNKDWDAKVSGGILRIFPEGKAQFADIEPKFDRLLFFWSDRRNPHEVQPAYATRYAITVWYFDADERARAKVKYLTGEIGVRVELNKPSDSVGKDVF
Description: The site of crosslinking was investigated by trypsin digest and LC-MS/MS. The imine adducts formed by 1/2 were fixed by reduction using sodium cyanoborohydride (Fig. S12, ESI ^†). Modified protein samples were digested (trypsin) and analysed by ‘nano LC-MS/MS’.[19] In all 3 samples, modification by the respective inhibitor was identified on the trypsin-derived peptide 403[…]411, and localised to K408 (Fig. 3B and Fig. S13, ESI ^†).
Fig. S11 Non-denaturing ESI-MS data of K408I PHD2 in the presence of equimolar amounts of FeSO4 and the Michael acceptor 3 after 3 hours incubation at 37 °C in ammonium acetate (15 mM, pH 7.5) at a sample cone voltages of (a) 80V or (b) 200V. Non-denaturing ESI-MS data of […] PHD2 in the presence of equimolar amounts of FeSO4 and 3 after 3 hours incubation at 37 °C in ammonium acetate (15 mM, pH 7.5) at a sample cone voltage of (c) 80V or (d) 200V. The peaks observed are consistent with the following complexes: (A): K408I.Fe; (B): non-covalent K408I.Fe.3 complex, (C): covalent K408I.Fe.3 complex; (D): R411M.Fe; (E): covalent R411M.Fe.3 complex.

PHD2 (residues 181-426) = PHD2 (residues 181-426) (Homo sapiens, UniProt Q9GZT9); assay: biochemical
Chain of PHD2 (residues 181-426) (Q9GZT9 181-426): as the sequence (Q9GZT9 181-426 K408I) above, with I228K counted along it

PHD2 = biological target: T2, PHD2 (Homo sapiens, UniProt Q9GZT9); assay: Peptide turnover assay (CODD hydroxylation) with MALDI-MS detection; assay type: biochemical; details: pre-incubation 0, 1, 2 and 4 h
T2 construct: PHD2_181–426 (hereafter PHD2); His6 (N, cleaved yes); made in house; host or cells: bacterial culture (2x TY, kanamycin, IPTG)
T2 sequence (Q9GZT9 181-426): as the sequence (Q9GZT9 181-426 K408I) above, with I228K counted along it

PHD2_181–414 = biological target: T3, PHD2_181–414 (Homo sapiens, UniProt Q9GZT9); assay: Non-denaturing ESI-MS crosslinking, 414 truncate; assay type: binding; details: equimolar FeSO4 and compound, 3 h, 37 °C, 200 V
T3 construct: 414 (PHD2_181–414) truncated proteins; His6 (N, cleaved yes); made in house; host or cells: bacterial culture (2x TY, kanamycin, IPTG)
T3 sequence (Q9GZT9 181-414): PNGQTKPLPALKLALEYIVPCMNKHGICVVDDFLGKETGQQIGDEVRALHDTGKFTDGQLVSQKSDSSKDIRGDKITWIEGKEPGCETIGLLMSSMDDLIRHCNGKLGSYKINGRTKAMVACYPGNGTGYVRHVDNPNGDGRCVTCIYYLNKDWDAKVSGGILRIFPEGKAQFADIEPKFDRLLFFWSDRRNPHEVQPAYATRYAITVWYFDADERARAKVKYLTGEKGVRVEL
Description: (§1) The site of crosslinking of 3 was investigated using protein variants. First, 3 was incubated with C-terminal truncated PHD2 (PHD2_181–402) and a loop deletion variant (deletion of residues 238–250, PHD2Δ). […] Thus, 3 was incubated with PHD2 constructs truncated at residues 402, 410, 414 and 418. […] Crosslinking experiments with PHD2 R411M implied that R411 is not directly involved in crosslinking (Fig. S11, ESI ^†).
(§2) Fig. S8 Temperature dependence of the rate of crosslinking of 3 with PHD2. PHD2 (20 µM) was incubated with equimolar Fe(II) and 3 in buffer (50 mM Tris, 150 mM NaCl, pH 7.5) at 4, 20 and 37 °C. The ratio of crosslinking after 1, 2, and 4 h was determined by ESI-MS under denaturing conditions (n = 2), error bars represent 1 standard deviation.
(§3) Fig. S9 Ratio of crosslinked PHD2.3 before evaluation of catalytic activity. Labelled peaks correspond to: (A): PHD2, […]
(§4) Fig. S10 Non-denaturing ESI-MS analysis of (a) PHD2 and its C-terminal truncations (b) PHD2181-418; (c) PHD2181-414;
(§5) (d) PHD2181-410; (e) PHD2181-402 in the presence of equimolar amounts of FeSO4 and 3 after 3 hours incubation at 37 °C in ammonium acetate (15 mM, pH 7.5) at a sample cone voltage of 200V. Peaks present: (A): PHD2.Fe; (B): PHD2181-

[1] = biological target: T4, PHD2 truncated at residue 410 (Homo sapiens, UniProt Q9GZT9); assay: Non-denaturing ESI-MS crosslinking, 410 truncate; assay type: binding; details: equimolar FeSO4 and compound, 3 h, 37 °C, 200 V
T4 construct: PHD2 constructs truncated at residues 402, 410, 414 and 418; Both the 418 (PHD2_181–418); His6 (N, cleaved yes); made in house; host or cells: bacterial culture (2x TY, kanamycin, IPTG)
T4 sequence (Q9GZT9 181-410): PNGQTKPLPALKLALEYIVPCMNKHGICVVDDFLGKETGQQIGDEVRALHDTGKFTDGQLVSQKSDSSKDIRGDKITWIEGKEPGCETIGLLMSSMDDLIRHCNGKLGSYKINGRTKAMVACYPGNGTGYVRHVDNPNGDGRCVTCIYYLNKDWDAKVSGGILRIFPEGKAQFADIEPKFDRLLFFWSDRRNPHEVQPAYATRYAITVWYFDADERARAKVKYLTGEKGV
Description: as §1, §2, §3, §4, §5

PHD3 = PHD3 (Homo sapiens, UniProt Q9H6Z9); assay: Denaturing MS covalent adduct formation with PHD3; assay type: binding; details: enzyme 20 μM, Fe(II) 30 μM, compound 30 μM, 37 °C, 4 h
Chain of PHD3 (Q9H6Z9 whole entry): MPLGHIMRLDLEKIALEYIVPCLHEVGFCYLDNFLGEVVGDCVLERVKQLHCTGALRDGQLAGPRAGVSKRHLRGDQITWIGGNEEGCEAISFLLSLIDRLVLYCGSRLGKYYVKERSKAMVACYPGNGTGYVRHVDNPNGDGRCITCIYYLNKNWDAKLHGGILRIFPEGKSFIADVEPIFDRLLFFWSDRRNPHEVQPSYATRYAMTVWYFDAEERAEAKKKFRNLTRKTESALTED

## C=CC(=O)Nc1cccc(C(=O)NCC(=O)O)c1O [compound 3]
PHD2 K408I
  apparent covalent modification of PHD2 K408I: < 10%
PHD2 (residues 181-426)
  IC50: > 2 mM
PHD2
  activity of PHD2 pre-incubated with the compound: remained as active as the non pre-incubated, uninhibited PHD2
PHD2_181–414
  covalent modification of 414 truncate: covalently modified
[1]
  crosslinking with 410 truncate: Crosslinking did not occur
PHD3
  covalent reaction with PHD3: did not covalently react
